This passage reports Ki results from patent publication US6080738A, “Heterocyclic amide compounds and medicinal uses thereof” (Yoshitomi Pharmaceuticals Industries, Ltd., priority 1996, dated 2000).

For the experiment, the target named is T1, human heart chymase (Homo sapiens, UniProt P23946).
T1 sequence (P23946 22-247): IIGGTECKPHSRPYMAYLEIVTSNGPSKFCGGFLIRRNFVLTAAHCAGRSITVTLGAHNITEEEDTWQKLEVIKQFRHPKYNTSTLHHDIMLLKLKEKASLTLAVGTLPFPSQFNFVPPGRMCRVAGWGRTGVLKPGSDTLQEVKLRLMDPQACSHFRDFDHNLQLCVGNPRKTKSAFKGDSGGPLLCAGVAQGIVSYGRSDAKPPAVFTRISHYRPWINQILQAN
Put plainly: Inhibitory activity on amidase activity of human heart chymase. The class given is biochemical. Conditions: 5 nM chymase; substrate succinyl-alanyl-alanyl-prolyl-phenylalanine-p-nitroanilide 2.5 mM; Tris-HCl (100 mM)-KCl (2 M), pH 7.5. As for the experimental part: The effectiveness of the inhibitory activity of compound (I) and compound (XXVI) of the present invention was evaluated based on the inhibitory activity on amidase activity of human heart chymase, which was determined as in the following.
The inhibitory activity was quantitatively determined through variation in fractional residual activity of the enzyme caused by the inventive compound in defined serial concentration (<×1, <×10, <×100-fold equivalents) relative to 5 nM chymase in the presence of synthetic substrate, succinyl-alanyl-alanyl-prolyl-phenylalanine-p-nitroanilide (final concentration 2.5 mM). The inhibitory effect was analyzed by least square regression of Easson-Stedman plot (Proc. Roy. Soc. B. 1936, 121, p. 141) utilizing bimolecular equilibrium reaction linearization formula. The inhibitory activity was evaluated by the apparent inhibitory constant (Kiapp) obtained by this analysis and inhibitory constant (Ki) calculated from final substrate concentration in the reaction mixture and Km values separately determined. With regard to the quantlitative determination of initial rate of the enzyme reaction, the amount of p-nitroaniline produced by hydrolysis of the substrate was spectrophotometrically detected in terms of an increased absorbance which was obtained by subtracting absorbance at 650 nm wavelength from the absorbance at 405 nm. The chymase inhibitory activity of the compound of the present invention was calculated as ratio of residual activity in the presence of inhibitor relative to enzyme activity in the absence of inhibitor, and incorporation of the determination values was completed at a level less than initial rate guarantee absorbance at a concentration of the substrate used for the enzyme, after which analysis was performed.
The reaction mixture consisted of a buffer (pH 7.5, 140 μl) of Tris-HCl (100 mM) - KCl (2 M), the inventive compound dissolved in 20 μl of 10% dimethyl sulfoxide (DMSO), substrate dissolved in 20 μl of DMSO, and 20 μl of chymase, thus amounting to 200 μl in total.
Starting with the absorbance immediately after addition of the enzyme, increases in absorbance were recorded as a progressive curve taken precisely at equal time intervals.
From the above data, the difference between absorbances at completion of the reaction and immediately after addition was used to quantitatively determine the residual activity of the sample added with the inhibitor relative to a control wherein the inhibitor was not added. Alternatively, reaction rates of the control and the sample added with the inhibitor were calculated for certain time period (≥20 min) with successive shift (every 10 to 30 minutes) of the period, and the residual activity ratio was quantitatively determined and analyzed from the respective reaction rates averaged through the entire reaction time.

The term Ki denotes a measure of affinity in units of concentration, obtained from inhibition or displacement. A higher Ki goes with a looser hold on the target. `CCOC(=O)c1ccc2oc(C(=O)C(Cc3ccccc3)NC(=O)Cn3c(-c4cccnc4)ncc(N)c3=O)nc2c1` (stereo not shown) [Example 64, 2-[5-amino-6-oxo-2-(3-pyridyl)-1,6-dihydro-1-pyrimidinyl]-N-[1-[[5-(ethoxycarbonyl)benzoxazol-2yl]carbonyl]-2-phenylethyl]acetamide]: the affinity corresponds to a Ki of 45 nM.

For `CCOC(=O)c1ccc2oc(C(=O)C(Cc3ccccc3)NC(=O)Cn3c(-c4ccccc4)ncc(N)c3=O)nc2c1` (stereo not shown) [Example 44], the Ki is 2 nM.

On to `CCN(CC)C(=O)c1ccc2oc(C(=O)C(Cc3ccccc3)NC(=O)Cn3c(-c4cccc(C)c4)ncc(N)c3=O)nc2c1` (stereo not shown) [Example 58, 2-[5-amino-6-oxo-2-(m-tolyl)-1,6-dihydro-1-pyrimidinyl]-N-[1-[[5-(diethylaminocarbonyl)benzoxazol-2-yl]carbonyl]-2-phenylethyl]acetamide], for which the affinity corresponds to a Ki of 12 nM.

`COC(=O)c1ccc2oc(C(=O)C(Cc3ccccc3)NC(=O)Cn3c(-c4cccc([N+](=O)[O-])c4)ncc(N)c3=O)nc2c1` (stereo not shown) [Example 80, 2-[5-amino-2-(3-nitrophenyl)-6-oxo-1,6-dihydro-1-pyrimidinyl]-N-[1-[[5-(methoxycarbonyl)benzoxazol-2-yl]carbonyl]-2-phenylethyl]acetamide] gave a Ki of 42 nM.

`COC(=O)c1ccc2nc(C(=O)C(Cc3ccccc3)NC(=O)Cn3c(-c4ccc(F)cc4)ncc(N)c3=O)oc2c1` (stereo not shown) [Example 7, 2-[5-amino-2-(4-fluorophenyl)-6-oxo-1,6-dihydro-1-pyrimidinyl]-N-[1-[[6-(methoxycarbonyl)benzoxazol-2-yl]carbonyl]-2-phenylethyl]acetamide]: the Ki was determined as 56 nM.

As to `COC(=O)c1ccc2oc(C(=O)C(Cc3ccccc3)NC(=O)Cn3c(-c4ccc(F)cc4)ncc(NC(=O)OCc4ccccc4)c3=O)nc2c1` (stereo not shown) [Example 3, 2-[5-benzyloxycarbonylamino-2-(4-fluorophenyl)-6-oxo-1,6-dihydro-1-pyrimidinyl]-N-[1-[[5-(methoxycarbonyl)benzoxazol-2-yl]carbonyl]-2-phenylethyl]acetamide], the Ki is 1300 nM.

For `Nc1cnc(-c2ccc(F)cc2)n(CC(=O)NC(Cc2ccccc2)C(=O)c2nc3cc(NS(=O)(=O)C(F)(F)F)ccc3o2)c1=O` (stereo not shown) [Example 17, 2-[5-amino-2-(4-fluorophenyl)-6-oxo-1,6-dihydro-1-pyrimidinyl]-N-[1-[[5-(trifluoromethanesulfonylamino)benzoxazol-2-yl]carbonyl]-2-phenylethyl]acetamide], the affinity corresponds to a Ki of 130 nM.

`O=C(Cn1c(-c2ccc(F)cc2)ncc(NC(=O)OCc2ccccc2)c1=O)NC(Cc1ccccc1)C(=O)c1nccs1` (stereo not shown) [Example 21, 2-[5-benzyloxycarbonylamino-2-(4-fluorophenyl)-6-oxo-1,6-dihydro-1-pyrimidinyl]-N-[2-phenyl-1-[(2-thiazolyl)carbonyl]ethyl]acetamide] displayed a Ki of 111 nM.

With `O=C(Cn1c(-c2ccc(F)cc2)ncc(NC(=O)OCc2ccccc2)c1=O)NC(Cc1ccccc1)C(=O)C1=NCCO1` (stereo not shown) [Example 23, 2-[5-benzyloxycarbonylamino-2-(4-fluorophenyl)-6-oxo-1,6-dihydro-1-pyrimidinyl]-N-[1-[(2-oxazolinyl)carbonyl]-2-phenylethyl]acetamide], the Ki came to 48 nM.

`CN(C)C(=O)c1ccc2oc(C(=O)C(Cc3ccccc3)NC(=O)Cn3c(-c4ccc(F)cc4)ncc(NC(=O)OCc4ccccc4)c3=O)nc2c1` (stereo not shown) [Example 31, 2-[5-benzyloxycarbonylamino-2-(4-fluorophenyl)-6-oxo-1,6-dihydro-1-pyrimidinyl]-N-[1-[[5-(dimethylaminocarbonyl)benzoxazol-2yl)carbonyl]-2-phenylethyl]acetamide] came in with a Ki of 16 nM.

`COC(=O)c1ccc2oc(C(=O)C(Cc3ccccc3)NC(=O)Cn3c(-c4cccc(N)c4)ncc(N)c3=O)nc2c1` (stereo not shown) [Example 93, 2-[5-amino-2-(3-aminophenyl)-6-oxo-1,6-dihydro-1-pyrimidinyl]-N-[1-[[5-(methoxycarbonyl)benzoxazol-2-yl]carbonyl]-2-phenylethyl]acetamide] had a Ki of 6 nM.

As for `Nc1cnc(-c2ccc(F)cc2)n(CC(=O)NC(Cc2ccccc2)C(=O)c2nc3cc(F)ccc3o2)c1=O` (stereo not shown) [Example 26, 2-[5-amino-2-(4-fluorophenyl)-6-oxo-1,6-dihydro-1-pyrimidinyl]-N-[1-[(5-fluorobenzoxazol-2-yl)carbonyl]-2-phenylethyl]acetamide], the Ki was found to be 93 nM.

Consider `COC(=O)c1ccc2oc(C(=O)C(Cc3ccccc3)NC(=O)Cn3c(-c4ccncc4)ncc(NC(=O)OCc4ccccc4)c3=O)nc2c1` (stereo not shown) [Example 73, 2-[5-benzyloxycarbonylamino-6-oxo-2-(4-pyridyl)-1,6-dihydro-1-pyrimidinyl]-N-[1-[[5-(methoxycarbonyl)benzoxazol-2-yl]carbonyl]-2-phenylethyl]acetamide], for which the affinity, expressed as Ki, was 59 nM.

In turn, `COC(=O)c1ccc2oc(C(=O)C(Cc3ccccc3)NC(=O)Cn3c(-c4cccc(OC)c4)ncc(N)c3=O)nc2c1` (stereo not shown) [Example 88, 2-[5-amino-2-(3-methoxyphenyl)-6-oxo-1,6-dihydro-1-pyrimidinyl]-N-[1-[[5-(methoxycarbonyl)benzoxazol-2-yl]carbonyl]-2-phenylethyl]acetamide] displayed a Ki of 5 nM.

For the molecule `Nc1cnc(-c2ccc(F)cc2)n(CC(=O)NC(Cc2ccc(F)cc2)C(=O)c2nc3ccccc3o2)c1=O` (stereo not shown) [Example 40, 2-[5-amino-2-(4-fluorophenyl)-6-oxo-1,6-dihydro-1-pyrimidinyl]-N-[1-[(benzoxazol-2-yl)carbonyl]-2-(4-fluorophenyl)ethyl]acetamide], the Ki amounted to 990 nM.

`Nc1cnc(-c2cccnc2)n(CC(=O)NC(Cc2ccccc2)C(=O)c2nc3ncccc3o2)c1=O` (stereo not shown) [Example 72, 2-[5-amino-6-oxo-2-(3-pyridyl)-1,6-dihydro-1-pyrimidinyl]-N-[1-[(oxazolo[4,5-b]pyridin-2-yl)carbonyl]-2-phenylethyl]acetamide] gave a Ki of 74 nM.

As for `Nc1ccc2oc(C(=O)C(Cc3ccccc3)NC(=O)Cn3c(-c4ccc(F)cc4)ncc(N)c3=O)nc2c1` (stereo not shown) [Example 15, 2-[5-amino-2-(4-fluorophenyl)-6-oxo-1,6-dihydro-1-pyrimidinyl]-N-[1-[(5-aminobenzoxazol-2-yl)carbonyl]-2-phenylethyl]acetamide], the affinity corresponds to a Ki of 183 nM.

As for `O=CC(Cc1ccccc1)NC(=O)Cn1c(-c2ccc(F)cc2)ncc(NC(=O)OCc2ccccc2)c1=O` (stereo not shown) [Example 9, 2-[5-benzyloxycarbonylamino-2-(4-fluorophenyl)-6-oxo-1,6-dihydro-1-pyrimidinyl]-N-(1-formyl-2-phenylethyl)acetamide], the affinity corresponds to a Ki of 1840 nM.

Take `CC(=O)Nc1cnc(-c2ccc(F)cc2)n(CC(=O)NC(Cc2ccccc2)C(=O)c2nc3ccccc3o2)c1=O` (stereo not shown) [Example 94, 2-[5-acetamide-2-(4-fluorophenyl)-6-oxo-1,6-dihydro-1-pyrimidinyl]-N-[1-[(benzoxazol-2-yl)carbonyl]-2-phenylethyl]acetamide]: the Ki turned out to be 58 nM.

Turning to `Cc1cccc(-c2ncc(NC(=O)OCc3ccccc3)c(=O)n2CC(=O)NC(Cc2ccccc2)C(=O)c2nc3cc(C(N)=O)ccc3o2)c1` (stereo not shown) [Example 53, 2-[5-benzyloxycarbonylamino-6-oxo-2-(m-tolyl)-1,6-dihydro-1-pyrimidinyl]-N-[1-[(5-carbamoylbenzoxazol-2-yl)carbonyl]-2-phenylethyl]acetamide], the Ki was 66 nM.

For `CCNC(=O)c1ccc2oc(C(=O)C(Cc3ccccc3)NC(=O)Cn3c(-c4cccc(C)c4)ncc(NC(=O)OCc4ccccc4)c3=O)nc2c1` (stereo not shown) [Example 55, 2-[5-benzyloxycarbonylamino-6-oxo-2-(m-tolyl)-1,6-dihydro-1-pyrimidinyl]-N-[1-[[5-(ethylaminocarbonyl)benzoxazol-2-yl]carbonyl]-2-phenylethyl]acetamid], affinity was put at a Ki of 59 nM.

Turning to `O=C(Cn1c(-c2ccccc2)ncc(NC(=O)OCc2ccccc2)c1=O)NC(Cc1ccccc1)C(=O)c1nc2ncccc2o1` (stereo not shown) [Example 45, 2-(5-benzyloxycarbonylamino-6-oxo-2-phenyl-1,6-dihydro-1-pyrimidinyl)-N-[1-[(oxazolo[4,5-b]pyridin-2-yl)carbonyl]-2-phenylethyl]acetamide], the affinity, expressed as Ki, was 24 nM.
